Test results from US20030104945A1, “2,4-Diamino-1,3,5-triazines, their preparation, and their use as herbicides and plant growth regulators” (priority 2001, published 2003).

Experiments:
Assay type in all cases: in vivo
[1] = test system: harmful plants which are typical of rice crops such as, for example, Cyperus monti, Echinochloa crus-galli and Sagittaria pygmaea; assay: Activity against harmful plants in rice (paddy rice conditions); conditions: poured into paddy water at various dosages; scored about three weeks after application vs untreated controls; note: test concentration or dose not given here
Description: Transplanted and seeded rice and typical grass weeds and broad-leaved weeds in rice crops are grown in the greenhouse under paddy rice conditions (depth of the paddy water: 2-3 cm) in sealed plastic pots until they have reached the three-leaf stage (Echinochloa crus-galli 1.5-leaf). They are then treated with the compounds according to the invention. To this end, the formulated active substances are suspended, dissolved or emulsified in water and the product is poured into the paddy water of the test plants at various dosages. After the treatment has been carried out thus, the test plants are placed in the greenhouse under optimal growth conditions and kept like this over the entire experimental period.
About three weeks after application, the evaluation is carried out by is of visually scoring the plant damage in comparison with untreated controls.

[2] = test system: harmful plants such as Stellaria media, Lolium multiflorum, Amaranthus retroflexus, Sinapis alba, Avena sativa and Setaria viridis; assay: Pre-emergence herbicidal action (greenhouse pot test); conditions: application rate of 1 kg or less active substance per hectare, scored after 3 to 4 weeks vs untreated controls
Description: Seeds and rhizome sections of monocotyledonous and dicotyledonous harmful plants are placed in sandy loam in plastic pots and covered with soil. The compounds according to the invention which are formulated in the form of wettable powders or emulsion concentrates at various rates, are then applied to the surface of the covering soil as aqueous suspension or emulsion at an application rate of 600 to 800 l of water per ha (converted).
After the treatment, the pots are placed in the greenhouse and kept under good growth conditions for the weeds. Visual scoring of the plant damage or the adverse effect on emergence is done after the test plants have emerged after an experimental period of 3 to 4 weeks in comparison with untreated controls.

[3] = test system: harmful plants such as Sinapis alba, Echinochloa crus-galli, Lolium multiflorum, Stellaria media, Cyperus iria, Amaranthus retroflexus, Setaria viridus and …; assay: Post-emergence herbicidal action (greenhouse pot test); conditions: three-leaf stage, application rate of 1 kg and less of active substance per hectare, scored after approx. 3 to 4 weeks vs untreated controls
Description: Seeds or rhizome sections of monocotyledonous and dicotyledonous weeds are placed in sandy loam soil in plastic pots, covered with soil and grown in the greenhouse under good growth conditions. Three weeks after sowing, the experimental plants are treated at the three-leaf stage. The compounds according to the invention, which are formulated as wettable powders or as emulsion concentrates, are sprayed at various rates onto the green plant organs at an application rate of 600 to 800 l of water per ha (converted). After the experimental plants have remained in the greenhouse for approx. 3 to 4 weeks under optimal growth conditions, the effect of the compositions is scored visually in comparison with untreated controls. The substances according to the invention also have a good herbicidal action against a broad spectrum of economically important grass weeds and broad-leaved weeds when applied post-emergence.

CCC(Nc1nc(N)nc(C(C)C)n1)[C@@H]1C[C@H]1c1ccccc1 (relative stereo) [Example 2-2]
very good herbicidal activity: herbicidal activity, visual scoring of plant damage [1] | herbicidal activity, visual scoring of plant damage or adverse effect on emergence [2] | herbicidal activity, visual scoring [3]

CC(F)c1nc(N)nc(NC(C2CCC2)[C@@H]2C[C@H]2c2ccccc2)n1 (relative stereo) [Example 4-3]
very good herbicidal activity: herbicidal activity, visual scoring of plant damage [1] | herbicidal activity, visual scoring of plant damage or adverse effect on emergence [2] | herbicidal activity, visual scoring [3]

CCc1nc(N)nc(NC(C)[C@@H]2C[C@H]2c2ccccc2)n1 (relative stereo) [Example 1-6]
very good herbicidal activity: herbicidal activity, visual scoring of plant damage [1] | herbicidal activity, visual scoring of plant damage or adverse effect on emergence [2] | herbicidal activity, visual scoring [3]

CC(F)c1nc(N)nc(NC(C)[C@@H]2C[C@H]2c2ccccc2)n1 (relative stereo) [Example 1-2, 2-Amino-4-(1-fluoroethyl)-6-[1-(trans-2-phenylcyclopropyl)-1-ethylamino]-1,3,5-triazine]
very good herbicidal activity: herbicidal activity, visual scoring of plant damage [1] | herbicidal activity, visual scoring of plant damage or adverse effect on emergence [2] | herbicidal activity, visual scoring [3]

CC(C)c1nc(N)nc(NC(C2CC2)[C@@H]2C[C@H]2c2ccccc2)n1 (relative stereo) [Example 3-2]
very good herbicidal activity: herbicidal activity, visual scoring of plant damage [1] | herbicidal activity, visual scoring of plant damage or adverse effect on emergence [2] | herbicidal activity, visual scoring [3]

CCC(Nc1nc(N)nc(C(C)F)n1)[C@@H]1C[C@H]1c1ccccc1 (relative stereo) [Example 2-3]
very good herbicidal activity: herbicidal activity, visual scoring of plant damage [1] | herbicidal activity, visual scoring of plant damage or adverse effect on emergence [2] | herbicidal activity, visual scoring [3]

CC(C)c1nc(N)nc(NC(C)[C@@H]2C[C@H]2c2ccccc2)n1 (relative stereo) [Example 1-4]
very good herbicidal activity: herbicidal activity, visual scoring of plant damage [1] | herbicidal activity, visual scoring of plant damage or adverse effect on emergence [2] | herbicidal activity, visual scoring [3]

CCC(F)(CC)c1nc(N)nc(NC(CC2CC2)[C@@H]2C[C@H]2c2ccccc2)n1 (relative stereo) [Example 5-3]
very good herbicidal activity: herbicidal activity, visual scoring of plant damage [1] | herbicidal activity, visual scoring of plant damage or adverse effect on emergence [2] | herbicidal activity, visual scoring [3]

CC(C)(F)c1nc(N)nc(NC(CC2CC2)[C@@H]2C[C@H]2c2ccccc2)n1 (relative stereo) [Example 5-1]
very good herbicidal activity: herbicidal activity, visual scoring of plant damage [1] | herbicidal activity, visual scoring of plant damage or adverse effect on emergence [2] | herbicidal activity, visual scoring [3]

CC(C)(F)c1nc(N)nc(NC(C2CCC2)[C@@H]2C[C@H]2c2ccccc2)n1 (relative stereo) [Example 4-1]
very good herbicidal activity: herbicidal activity, visual scoring of plant damage [1] | herbicidal activity, visual scoring of plant damage or adverse effect on emergence [2] | herbicidal activity, visual scoring [3]

CC(C)c1nc(N)nc(NC(C2CCC2)[C@@H]2C[C@H]2c2ccccc2)n1 (relative stereo) [Example 4-27]
very good herbicidal activity: herbicidal activity, visual scoring of plant damage [1] | herbicidal activity, visual scoring of plant damage or adverse effect on emergence [2] | herbicidal activity, visual scoring [3]

CC(C)c1nc(N)nc(NC(C2CC2)[C@@H]2C[C@H]2c2cc(Cl)cc(Cl)c2)n1 (relative stereo) [Example 3-28]
very good herbicidal activity: herbicidal activity, visual scoring of plant damage [1] | herbicidal activity, visual scoring of plant damage or adverse effect on emergence [2] | herbicidal activity, visual scoring [3]

CC(Nc1nc(N)nc(C(C)(C)F)n1)[C@@H]1C[C@H]1c1ccccc1 (relative stereo) [Example 1-1]
very good herbicidal activity: herbicidal activity, visual scoring of plant damage [1] | herbicidal activity, visual scoring of plant damage or adverse effect on emergence [2] | herbicidal activity, visual scoring [3]

CCC(F)(CC)c1nc(N)nc(NC(C2CCC2)[C@@H]2C[C@H]2c2ccccc2)n1 (relative stereo) [Example 4-2]
very good herbicidal activity: herbicidal activity, visual scoring of plant damage [1] | herbicidal activity, visual scoring of plant damage or adverse effect on emergence [2] | herbicidal activity, visual scoring [3]

CCC(F)c1nc(N)nc(NC(CC)[C@@H]2C[C@H]2c2ccccc2)n1 (relative stereo) [Example 2-8]
very good herbicidal activity: herbicidal activity, visual scoring of plant damage [1] | herbicidal activity, visual scoring of plant damage or adverse effect on emergence [2] | herbicidal activity, visual scoring [3]

CCC(F)c1nc(N)nc(NC(C2CC2)[C@@H]2C[C@H]2c2cc(Cl)cc(Cl)c2)n1 (relative stereo) [Example 3-27]
very good herbicidal activity: herbicidal activity, visual scoring of plant damage [1] | herbicidal activity, visual scoring of plant damage or adverse effect on emergence [2] | herbicidal activity, visual scoring [3]

CC(C)(F)c1nc(N)nc(NC(C2CCC2)[C@@H]2C[C@H]2c2cccc(Cl)c2)n1 (relative stereo) [Example 4-28]
very good herbicidal activity: herbicidal activity, visual scoring of plant damage [1] | herbicidal activity, visual scoring of plant damage or adverse effect on emergence [2] | herbicidal activity, visual scoring [3]

CCC(Nc1nc(N)nc(C(C)(C)F)n1)[C@@H]1C[C@H]1c1ccccc1 (relative stereo) [Example 2-1, 2-Amino-4-(1-fluoro-1-methylethyl)-6-[1-(trans-2-phenylcyclopropyl)prop-1-ylamino]-1,3,5-triazine]
very good herbicidal activity: herbicidal activity, visual scoring of plant damage [1] | herbicidal activity, visual scoring of plant damage or adverse effect on emergence [2] | herbicidal activity, visual scoring [3]

CCC(F)c1nc(N)nc(NC(C2CC2)[C@@H]2C[C@H]2c2ccccc2)n1 (relative stereo) [Example 3-4]
very good herbicidal activity: herbicidal activity, visual scoring of plant damage [1] | herbicidal activity, visual scoring of plant damage or adverse effect on emergence [2] | herbicidal activity, visual scoring [3]

CC(C)(F)c1nc(N)nc(NC(C2CC2)[C@@H]2C[C@H]2c2ccccc2)n1 (relative stereo) [Example 3-1]
very good herbicidal activity: herbicidal activity, visual scoring of plant damage [1] | herbicidal activity, visual scoring of plant damage or adverse effect on emergence [2] | herbicidal activity, visual scoring [3]

CCC(F)c1nc(N)nc(NC(C2CCC2)[C@@H]2C[C@H]2c2ccccc2)n1 (relative stereo) [Example 4-4]
very good herbicidal activity: herbicidal activity, visual scoring of plant damage [1] | herbicidal activity, visual scoring of plant damage or adverse effect on emergence [2] | herbicidal activity, visual scoring [3]

CCC(F)c1nc(N)nc(NC(C)[C@@H]2C[C@H]2c2ccccc2)n1 (relative stereo) [Example 1-3]
very good herbicidal activity: herbicidal activity, visual scoring of plant damage [1] | herbicidal activity, visual scoring of plant damage or adverse effect on emergence [2] | herbicidal activity, visual scoring [3]

CC(F)c1nc(N)nc(NC(C2CC2)[C@@H]2C[C@H]2c2cc(Cl)cc(Cl)c2)n1 (relative stereo) [Example 3-26]
very good herbicidal activity: herbicidal activity, visual scoring of plant damage [1] | herbicidal activity, visual scoring of plant damage or adverse effect on emergence [2] | herbicidal activity, visual scoring [3]

CC(C)c1nc(N)nc(NC(CC2CC2)[C@@H]2C[C@H]2c2ccccc2)n1 (relative stereo) [Example 5-2]
very good herbicidal activity: herbicidal activity, visual scoring of plant damage [1] | herbicidal activity, visual scoring of plant damage or adverse effect on emergence [2] | herbicidal activity, visual scoring [3]
